The test system of one experiment is βCatenin-BCL9. As to the kind of experiment: ELISA based protein-protein interaction assay. It counts as binding. As to conditions: inhibition class of the βCatenin-BCL9 interaction. Here is the method: In vitro ELISA-based Protein-protein Interaction Assay
Protein Production in Bacteria
cDNAs including the binding domains of Lgs and βCatenin were fused downstream of glutathione-S-transferase (GST) cDNA in pGEX-4T inducible bacterial expression vector (Pharmacia). Fusion proteins were produced in BL21 bacteria (e.g. Stratagene) following manufacturer's recommendation.
To isolate the produced fusions protein bacteria were lysed in sonication buffer (10 mM Tris HCl pH 8.0, 150 mM NaCl, 1 mM EDTA, 1.5% sarkosyl, 2% Triton-X-100, 1 mM DTT and protease inhibitors), followed by short sonication on ice (e.g. 3 times 20 seconds at middle power) and centrifugation. Cleared supernatants were incubated under gentle rotation with glutathione beads (Amersham Pharmacia) for 2 hrs at 4° C. Finally, beads were washed several time in washing buffer (20 mM Tris pH 8.0, 200 mM NaCl, 1 mM EDTA, 1 mM DTT, 1 mM MgCl2, 0.5% NP40), and stored in storage buffer (20 mM Tris pH 8.0, 200 mM NaCl, 1 mM EDTA, 1 mM DTT, 1 mM MgCl2, 10% glycerol, 0.5% NP40, and proteinase inhibitors). The quality of the preparations was checked by SDS-gel electrophoresis by standard methods well known by persons skilled in the art. […]
(In general: ELISA stands for enzyme-linked immunosorbent assay.)

Another experiment has as its system Wnt pathway. In words: Cell Assay (CA): inhibition of Wnt activity in cancer cells, Tcf reporter gene. The note with it: inhibition class in the Cell Assay. The class given is cell-based. The source says:
Inhibition of Wnt Activity in Cancer Cells
The effect of β-catenin/BCL9 inhibitors identified in the ELISA-based protein-protein interaction assay on the Wnt pathway can be evaluated in a cell culture system using a reporter gene responsive to the Tcf/Lef family of transcription factors or by quantitative analysis of Wnt target genes in appropriate cell lines.
A reporter gene is a construct which comprises a readily detectable or assayable gene such β-galactosidase, green fluorescent protein, chloramphenicol acetyltransferase or luciferase, linked in cis to a transcription factor response element and a minimal promoter. Depending on the expression vectors used, this protocol can be applied, e.g. for mammalian as well as for Drosophila cell lines. For instance, colon cancer cells with constitutively active Wnt pathway like DLD-1 or SW620 (ATCC) are a well suitable system. Hereby, a Tcf-4 driven luciferase reporter plasmid (i.e. TOP-FLASH, Upstate biotechnology, New York, USA) is transiently or stably transfected into cells known in the art. Any means for introducing genetic material into cells can be used, including but not limited to infection, electroporation or transfection. For instance, to introduce DNA into DLD-1 cells, a lipofection agent like the Lipofectamine transfection reagent (Life Technologies, Inc.) can be used. By transient transfection protocols, a second reporter gene, e.g. the renilla luciferase reporter plasmid pRL-SV40 (Promega Corporation, Madison USA), needs to be co-transfected to normalize for transfection efficiency. Drugs are added to the media 24 h after trans-fection (transient transfection) or 24 h after seeding of the cells (stably transfected cells). Cell extracts are prepared 24 to 48 h later and assayed for reporter gene activity as described by the manufacturer (eg. for luciferase activity: Promega Corporation). Compounds reducing reporter gene activity more than 50% compared to solvent alone treated cells are considered as hits. In parallel, toxicity can be assessed for instance by the yellow tetrazolium salt cell proliferation assay (MTT) assay.
Background: A reporter such as luciferase makes a cellular process visible.

For the compound `O=[N+]([O-])c1ccc(N/N=C/c2ccc(O)c(O)c2)c(S(=O)(=O)Nc2ccccc2Cl)c1` [TGC0008709], in the experiment with βCatenin-BCL9, the ELISA was determined as 3.5. Moreover, the CA with Wnt pathway is reported as 4 (61-80% inhibition). For `O=[N+]([O-])c1ccc(N/N=C/c2cc(Cl)cc(Cl)c2O)c(S(=O)(=O)Nc2ccccc2Cl)c1` [TGC0010527] the same measures were 3 (41-60% inhibition) and 4.5. The like results for `O=[N+]([O-])c1ccc(N/N=C/c2cc(Cl)cc(Cl)c2)c(S(=O)(=O)Nc2ccccc2Cl)c1` [TGC0010536] were, in that order, 2 (21-40% inhibition) and 5 (81-100% inhibition). The like results for `O=[N+]([O-])c1ccc(N/N=C/c2cccc(Oc3ccccc3)c2)c(S(=O)(=O)Nc2ccccc2Cl)c1` [TGC0010583] were, in that order, 2 (21-40% inhibition) and 4 (61-80% inhibition).

With `Cc1ncc(CO)c(/C=N/Nc2ccc([N+](=O)[O-])cc2S(=O)(=O)Nc2ccccc2Cl)c1O` [TGC0010626], the ELISA in the experiment on βCatenin-BCL9 is recorded as 3 (41-60% inhibition). In addition, the CA in the experiment with Wnt pathway came to 4.5.

As for `O=[N+]([O-])c1ccc(NN=C(Cc2ccccc2)Cc2ccccc2)c(S(=O)(=O)Nc2ccccc2Cl)c1` [TGC0010661], the ELISA in the experiment with βCatenin-BCL9 is reported as 2 (21-40% inhibition). For the same compound, in the experiment on Wnt pathway, the CA is 3 (41-60% inhibition).

With `O=C1Nc2ccccc2/C1=N/Nc1ccc([N+](=O)[O-])cc1S(=O)(=O)Nc1ccccc1Cl` [TGC0010663], the ELISA with βCatenin-BCL9 was found to be 2.5. Regarding `CCN1C(=O)/C(=N\Nc2ccc([N+](=O)[O-])cc2S(=O)(=O)Nc2ccccc2Cl)c2ccccc21` [TGC0010665], the ELISA in the experiment with βCatenin-BCL9 is on record as 2 (21-40% inhibition). Further, the CA with Wnt pathway is reported as 4 (61-80% inhibition). The like results for `Cc1cc(/C=N\Nc2ccc([N+](=O)[O-])cc2S(=O)(=O)Nc2ccccc2Cl)c(C)n1-c1ccc(Cl)cc1` [TGC0010673] were, in that order, 1 (0-20% inhibition) and 4.5. In the experiment on βCatenin-BCL9, `Cc1nn(-c2ccc(F)cc2)c(Cl)c1/C=N\Nc1ccc([N+](=O)[O-])cc1S(=O)(=O)Nc1ccccc1Cl` [TGC0010674] registered an ELISA of 2.5.

With `O=S(=O)(Nc1ccccc1Cl)c1ccccc1Cl` [TGC0011155], the ELISA in the experiment on βCatenin-BCL9 is 1 (0-20% inhibition). Still for that read-out and setting: for `O=S(=O)(Nc1ccccc1Cl)c1ccccc1Br` [TGC0011157] the value was 1 (0-20% inhibition). Consider `O=S(=O)(Nc1ccccc1Cl)c1cccc(Br)c1` [TGC0011158], for which, in the experiment with βCatenin-BCL9, the ELISA is recorded as 1 (0-20% inhibition).

In the case of `CC(=O)Nc1ccc(/C=N/Nc2ccc([N+](=O)[O-])cc2S(=O)(=O)Nc2ccccc2Cl)cc1` [TGC0011358], the ELISA in the experiment with βCatenin-BCL9 came out at 1.5. The CA in the experiment with Wnt pathway is 3 (41-60% inhibition). For `O=[N+]([O-])c1ccc(N/N=C/c2ccc(O)cc2)c(S(=O)(=O)Nc2ccccc2Cl)c1` [TGC0011359], the ELISA with βCatenin-BCL9 is reported as 3 (41-60% inhibition). In addition, the CA in the experiment on Wnt pathway is given as 3 (41-60% inhibition). Consider `COc1cc(Cl)cc(/C=N/Nc2ccc([N+](=O)[O-])cc2S(=O)(=O)Nc2ccccc2Cl)c1OCC(=O)O` [TGC0011360], for which the ELISA in the experiment on βCatenin-BCL9 turned out to be 4.5. Consider `CC/C=N/Nc1ccc([N+](=O)[O-])cc1S(=O)(=O)Nc1ccccc1Cl` [TGC0011361], for which the ELISA in the experiment with βCatenin-BCL9 is reported as 1 (0-20% inhibition). For the same compound, the CA in the experiment on Wnt pathway turned out to be 3.5. `O=[N+]([O-])c1ccc(N/N=C/c2ccccn2)c(S(=O)(=O)Nc2ccccc2Cl)c1` [TGC0011401] showed an ELISA in the experiment with βCatenin-BCL9 of 1.5. Besides, the CA in the experiment with Wnt pathway was 4 (61-80% inhibition). The like results for `O=[N+]([O-])c1ccc(N/N=C/c2cccnc2)c(S(=O)(=O)Nc2ccccc2Cl)c1` [TGC0011402] were, in that order, 2 (21-40% inhibition) and 4 (61-80% inhibition). As to `O=[N+]([O-])c1ccc(N/N=C/c2ccncc2)c(S(=O)(=O)Nc2ccccc2Cl)c1` [TGC0011403], in the experiment on βCatenin-BCL9, the ELISA is reported as 2 (21-40% inhibition). In addition, in the experiment on Wnt pathway, the CA is 4 (61-80% inhibition). As to `O=[N+]([O-])c1ccc(N/N=C/c2ccc(CN3CCOCC3)cc2)c(S(=O)(=O)Nc2ccccc2Cl)c1` [TGC0011404], the ELISA in the experiment on βCatenin-BCL9 was 3 (41-60% inhibition). For the same compound, the CA in the experiment on Wnt pathway is on record as 4 (61-80% inhibition). `O=[N+]([O-])c1ccc(N/N=C/c2ccnc3ccccc23)c(S(=O)(=O)Nc2ccccc2Cl)c1` [TGC0011405]: the CA in the experiment on Wnt pathway is listed as 4.5.

On to `O=[N+]([O-])c1ccc(N/N=C/c2ccc(Oc3cccnc3)cc2)c(S(=O)(=O)Nc2ccccc2Cl)c1` [TGC0011406], for which the CA in the experiment with Wnt pathway is recorded as 4 (61-80% inhibition).

In the case of `O=[N+]([O-])c1ccc(N/N=C/c2ccccc2-c2cccnc2)c(S(=O)(=O)Nc2ccccc2Cl)c1` [TGC0011409], the ELISA in the experiment with βCatenin-BCL9 is listed as 3.5. Besides, in the experiment with Wnt pathway, the CA is 4.5. For `O=[N+]([O-])c1ccc(N/N=C/c2cccc(CN3CCOCC3)c2)c(S(=O)(=O)Nc2ccccc2Cl)c1` [TGC0011419] the same measures were 1.5 and 3 (41-60% inhibition). For `O=[N+]([O-])c1ccc(N/N=C/c2cccc(OCCN3CCOCC3)c2)c(S(=O)(=O)Nc2ccccc2Cl)c1` [TGC0011420] the same measures were 1 (0-20% inhibition) and 2 (21-40% inhibition).

Regarding `O=[N+]([O-])c1ccc(N/N=C/c2ccc(Br)cc2)c(S(=O)(=O)Nc2ccccc2Cl)c1` [TGC0011421], the ELISA in the experiment with βCatenin-BCL9 is 2.5. The CA with Wnt pathway is given as 4 (61-80% inhibition). With `CN1CCN(Cc2ccc(/C=N/Nc3ccc([N+](=O)[O-])cc3S(=O)(=O)Nc3ccccc3Cl)cc2)CC1` [TGC0011438], the ELISA in the experiment on βCatenin-BCL9 was 1 (0-20% inhibition). In addition, in the experiment on Wnt pathway, the CA is 3 (41-60% inhibition). For `N#Cc1ccc(Cl)c(NS(=O)(=O)c2ccccc2Br)c1` [TGC0011492] the same measures were 1 (0-20% inhibition) and 1 (0-20% inhibition). The like results for `O=S(=O)(Nc1ccccc1Cl)c1ccc(Cl)c(NS(=O)(=O)c2ccccc2Br)c1` [TGC0011493] were, in that order, 1 (0-20% inhibition) and 1 (0-20% inhibition). For `COC(=O)c1ccc(Cl)c(NS(=O)(=O)c2ccccc2Br)c1` [TGC0011494] the same measures were 1 (0-20% inhibition) and 1 (0-20% inhibition). Consider `O=S(=O)(Nc1cc(S(=O)(=O)N2CCOCC2)ccc1Cl)c1ccccc1Br` [TGC0011498], for which the ELISA in the experiment with βCatenin-BCL9 is 1 (0-20% inhibition). Also, the CA in the experiment on Wnt pathway is listed as 1 (0-20% inhibition). Take `COC(=O)c1ccc(NS(=O)(=O)c2ccccc2Br)c(Cl)c1` [TGC0011499]: in the experiment with βCatenin-BCL9, the ELISA was 1 (0-20% inhibition). Besides, the CA in the experiment with Wnt pathway is reported as 1 (0-20% inhibition).

As to `CC(=O)Nc1ccc(Cl)c(NS(=O)(=O)c2ccccc2Br)c1` [TGC0011502], the ELISA in the experiment on βCatenin-BCL9 is reported as 1 (0-20% inhibition). Further, the CA in the experiment on Wnt pathway is on record as 1 (0-20% inhibition). Consider `C[n+]1cccc(/C=N/Nc2ccc([N+](=O)[O-])cc2S(=O)(=O)Nc2ccccc2Cl)c1.[I-]` [TGC0011513], for which the CA with Wnt pathway is listed as 1 (0-20% inhibition).

Take `C[n+]1ccccc1/C=N/Nc1ccc([N+](=O)[O-])cc1S(=O)(=O)Nc1ccccc1Cl.[I-]` [TGC0011514]: the ELISA in the experiment on βCatenin-BCL9 is 1 (0-20% inhibition). Also, the CA in the experiment on Wnt pathway is recorded as 1 (0-20% inhibition). Consider `COC(=O)c1ccc(C(=O)NNc2ccc([N+](=O)[O-])cc2S(=O)(=O)Nc2ccccc2Cl)cc1` [TGC0011562], for which the ELISA in the experiment with βCatenin-BCL9 is listed as 2 (21-40% inhibition). This compound came in with a CA with Wnt pathway of 1.5. For `COc1ccc(/C=N/Nc2ccc([N+](=O)[O-])cc2S(=O)(=O)Nc2ccccc2Cl)cc1OC` [TGC0011564] the same measures were 1 (0-20% inhibition) and 3.5. As for `Cn1cncc1C#Cc1ccccc1S(=O)(=O)Nc1ccccc1Cl` [TGC0012268], in the experiment on Wnt pathway, the CA worked out at 2.5.

For `CC(C)C/C=N/Nc1ccc([N+](=O)[O-])cc1S(=O)(=O)Nc1ccccc1Cl` [TGC0012273], the CA in the experiment on Wnt pathway turned out to be 3.5. Same read-out and setting: under `CCCCCC#C/C=N/Nc1ccc([N+](=O)[O-])cc1S(=O)(=O)Nc1ccccc1Cl` [TGC0012276] stands 4.5.

Values taken from US8088772B2, “Sulfonamides and their use as a medicament” (The Genetics Company, Inc., priority 2006, dated 2012).
